In patent US9624214B2, “Amino-substituted imidazo[1,2-a]pyridinecarboxamides and their use” (BAYER PHARMA AKTIENGESELLSCHAFT, priority 2012, dated 2017):

target: T1, recombinant guanylate cyclase reporter cell line (Rattus norvegicus, UniProt P19686+P20595); experiment: B-2. Action on recombinant guanylate cyclase reporter cell line; assay type: cell-based; settings: MEC = minimal effective concentration; in some cases mean values from individual determinations
T1 construct: expressed in transfected cells
T1 sequence (P20595 1-619): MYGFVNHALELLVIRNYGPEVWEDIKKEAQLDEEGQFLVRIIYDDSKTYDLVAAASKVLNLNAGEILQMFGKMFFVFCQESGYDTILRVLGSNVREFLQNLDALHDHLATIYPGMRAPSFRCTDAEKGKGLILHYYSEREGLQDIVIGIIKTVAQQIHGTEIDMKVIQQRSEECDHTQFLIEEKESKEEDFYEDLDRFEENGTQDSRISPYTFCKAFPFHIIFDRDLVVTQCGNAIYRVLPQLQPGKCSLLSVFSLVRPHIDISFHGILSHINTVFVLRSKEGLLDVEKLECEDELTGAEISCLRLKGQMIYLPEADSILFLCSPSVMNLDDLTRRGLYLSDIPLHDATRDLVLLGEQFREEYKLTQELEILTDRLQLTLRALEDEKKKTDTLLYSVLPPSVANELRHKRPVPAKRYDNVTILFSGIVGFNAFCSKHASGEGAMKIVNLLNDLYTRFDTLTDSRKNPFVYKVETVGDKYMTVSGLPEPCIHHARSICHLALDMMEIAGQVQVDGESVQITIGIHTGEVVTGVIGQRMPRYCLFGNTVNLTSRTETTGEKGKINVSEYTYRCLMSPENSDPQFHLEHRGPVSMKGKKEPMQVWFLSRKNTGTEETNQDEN
T1 sequence (P19686 1-690): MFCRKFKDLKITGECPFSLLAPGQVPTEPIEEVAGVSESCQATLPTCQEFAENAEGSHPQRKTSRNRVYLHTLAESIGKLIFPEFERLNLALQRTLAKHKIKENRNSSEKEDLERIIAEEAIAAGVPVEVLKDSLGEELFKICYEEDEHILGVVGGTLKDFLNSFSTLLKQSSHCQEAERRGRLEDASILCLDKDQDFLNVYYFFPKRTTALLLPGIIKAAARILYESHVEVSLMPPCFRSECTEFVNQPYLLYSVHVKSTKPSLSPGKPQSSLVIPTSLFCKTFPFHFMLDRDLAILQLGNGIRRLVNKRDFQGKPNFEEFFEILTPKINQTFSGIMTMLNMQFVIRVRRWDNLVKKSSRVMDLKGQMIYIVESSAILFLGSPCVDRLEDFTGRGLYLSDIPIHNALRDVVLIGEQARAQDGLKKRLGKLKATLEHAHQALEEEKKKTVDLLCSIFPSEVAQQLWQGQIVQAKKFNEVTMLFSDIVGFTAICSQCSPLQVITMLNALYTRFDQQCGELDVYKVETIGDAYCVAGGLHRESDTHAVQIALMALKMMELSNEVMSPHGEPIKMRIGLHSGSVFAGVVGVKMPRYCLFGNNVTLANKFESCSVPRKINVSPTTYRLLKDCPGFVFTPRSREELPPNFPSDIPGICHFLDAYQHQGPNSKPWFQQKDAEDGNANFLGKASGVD
Outline: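 Rat recombinant guanylate cyclase reporter cell line measures cellular activity. Value reported as MEC (minimal effective concentration), sometimes averaged over individual determinations.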

Q: How did the MEC turn out when Cc1nc2c(OCc3c(F)cccc3F)cccn2c1C(=O)NCC(C)(C)N [Example 72, N-(2-Amino-2-methylpropyl)-8-[(2,6-difluorobenzyl)oxy]-2-methylimidazo[1,2-a]pyridine-3-carboxamide] was run?
A: The MEC was 0.30 µM.

Q: Which MEC does the source give for Cc1nc2c(OCc3c(F)cccc3F)cc(Cl)cn2c1C(=O)NCC(C)(C)N [Example 73, N-(2-Amino-2-methylpropyl)-6-chloro-8-[(2,6-difluorobenzyl)oxy]-2-methylimidazo[1,2-a]-pyridine-3-carboxamide] here?
A: The MEC was 0.30 µM.

Q: With Cc1nc2c(OCc3c(F)cccc3F)cccn2c1C(=O)NCCNc1ccc(F)cc1 [Example 79, 8-[(2,6-difluorobenzyl)oxy]-N-{2-[(4-fluoro-phenyl)amino]ethyl}-2-methylimidazo[1,2-a]-pyridine-3-carboxamide] as the compound, how does the MEC read?
A: The MEC was 1.00 µM.

Q: For Cc1nc2c(OCc3c(F)cccc3F)cccn2c1C(=O)NC1CC(C)(C)NC(C)(C)C1 [Example 82, 8-[(2,6-Difluorobenzyl)oxy]-2-methyl-N-(2,2,6,6-tetramethylpiperidin-4-yl)imidazo[1,2-a]-pyridine-3-carboxamide], which MEC is on record?
A: The MEC was 0.20 µM.

Q: Cc1nc2c(OCc3c(F)cccc3F)cccn2c1C(=O)NC1CC(C)(C)N(C)C(C)(C)C1 [Example 83, 8-[(2,6-difluorobenzyl)oxy]-2-methyl-N-(1,2,2,6,6-pentamethylpiperidin-4-yl)imidazo[1,2-a]pyridine-3-carboxamide] was tested. Which MEC did it give?
A: Its MEC is 0.10 µM.

Q: With Cc1nc2c(OCc3c(F)cccc3F)cccn2c1C(=O)NCCN(C)C [Example 86, 8-[(2,6-difluorobenzyl)oxy]-N-[2-(dimethyl-amino)ethyl]-2-methylimidazo[1,2-a]pyridine-3-carboxamide] as the compound, how does the MEC read?
A: The MEC was 2.00 µM.

Q: Which MEC does the source give for Cc1nc2c(OCc3c(F)cccc3F)cccn2c1C(=O)NCCCN(C)C [Example 87, 8-[(2,6-difluorobenzyl)oxy]-N-[3-(dimethyl-amino)propyl]-2-methylimidazo[1,2-a]-pyridine-3-carboxamide] here?
A: Its MEC is 1.00 µM.

Q: How did the MEC turn out when Cc1nc2c(OCc3c(F)cccc3F)cccn2c1C(=O)NCCN(C(C)C)C(C)C [Example 88, 8-[(2,6-difluorobenzyl)oxy]-N-[2-(diisopropyl-amino)ethyl]-2-methylimidazo[1,2-a]pyridine-3-carboxamide] was run?
A: The MEC was 1.00 µM.

Q: For Cc1nc2c(OCc3c(F)cccc3F)cccn2c1C(=O)NCCN1CCOCC1 [Example 89, 8-[(2,6-difluorobenzyl)oxy]-2-methyl-N-[2-(morpholin-4-yl)ethyl]imidazo[1,2-a]pyridine-3-carboxamide], which MEC is on record?
A: The MEC was 0.65 µM.

Q: Which MEC does the source give for Cc1nc2c(OCc3c(F)cccc3F)cccn2c1C(=O)NC1CC2CCCC(C1)N2C (stereo not shown) [Example 90, 8-[(2,6-difluorobenzyl)oxy]-2-methyl-N-(9-methyl-9-azabicyclo[3.3.1]non-3-yl)imidazo[1,2-a]pyridine-3-carboxamide] here?
A: Its MEC is 0.10 µM.

Q: With Cc1nc2c(OCc3c(F)cccc3F)cccn2c1C(=O)NC1CC2CCC(C1)N2C (stereo not shown) [Example 91, 8-[(2,6-difluorobenzyl)oxy]-2-methyl-N-(8-methyl-8-azabicyclo[3.2.1]oct-3-yl)imidazo[1,2-a]pyridine-3-carboxamide] as the compound, how does the MEC read?
A: Its MEC is 1.00 µM.

Q: How did the MEC turn out when Cc1nc2c(OCc3c(F)cccc3F)cccn2c1C(=O)NC1CN2CCC1CC2 (stereo not shown) [Example 92, N-(1-azabicyclo[2.2.2]oct-3-yl)-8-[(2,6-difluorobenzyl)oxy]-2-methylimidazo[1,2-a]-pyridine-3-carboxamide] was run?
A: Its MEC is 0.30 µM.

Q: Which MEC does the source give for Cc1cc(OCc2c(F)cccc2F)c2nc(C)c(C(=O)NCC(C)(C)NCC(F)(F)F)n2c1 [Example 94, 8-[(2,6-Difluorobenzyl)oxy]-2,6-dimethyl-N-{2-methyl-2-[(2,2,2-trifluoroethyl)amino]propyl}-imidazo[1,2-a]pyridine-3-carboxamide] here?
A: The MEC was 0.30 µM.

Q: [2H]C([2H])(Oc1cccn2c(C(=O)NC(CN)c3ccc(F)c(F)c3)c(C)nc12)c1c(F)cccc1F (stereo not drawn) [Example 97, ent-N-[2-Amino-1-(3,4-difluorophenyl)ethyl]-8-{[(2,6-difluorophenyl) (^2H2)methyl]oxy}-2-methylimidazo[1,2-a]pyridine-3-carboxamide] was tested. Which MEC did it give?
A: The MEC was 0.10 µM.

Q: For Cc1nc2c(OCc3ccccc3F)cccn2c1C(=O)NC(CN)c1ccc(F)c(F)c1 (stereo not drawn) [Example 98, ent-N-[2-Amino-1-(3,4-difluorophenyl)ethyl]-8-[(2-fluorobenzyl)oxy]-2-methylimidazo[1,2-a]-pyridine-3-carboxamide], which MEC is on record?
A: Its MEC is 1.00 µM.

Q: For Cc1nc2c(OCc3cccc(F)c3F)cccn2c1C(=O)NC(CN)c1ccc(F)c(F)c1 (stereo not drawn) [Example 99, ent-N-[2-amino-1-(3,4-difluorophenyl)ethyl]-8-[(2,3-difluorobenzyl)oxy]-2-methylimidazo[1,2-a]pyridine-3-carboxamide], which MEC is on record?
A: Its MEC is 1.00 µM.

Q: Which MEC does the source give for Cc1nc2c(OCc3c(F)ccc(F)c3F)cccn2c1C(=O)NC(CN)c1ccc(F)c(F)c1 (stereo not drawn) [Example 100, ent-N-[2-amino-1-(3,4-difluorophenyl)ethyl]-2-methyl-8-[(2,3,6-trifluorobenzyl)oxy] imidazo[1,2-a]pyridine-3-carboxamide] here?
A: The MEC was 0.30 µM.

Q: Which MEC does the source give for Cc1nc2c(OCc3c(F)cc(F)cc3F)cccn2c1C(=O)NC(CN)c1ccc(F)c(F)c1 (stereo not drawn) [Example 101, ent-N-[2-amino-1-(3,4-difluorophenyl)ethyl]-2-methyl-8-[(2,4,6-trifluorobenzyl)oxy] imidazo[1,2-a]pyridine-3-carboxamide] here?
A: Its MEC is 1.00 µM.

Q: With Cc1nc2c(OCc3c(F)cccc3Cl)cccn2c1C(=O)NC(CN)c1ccc(F)c(F)c1 (stereo not drawn) [Example 102, ent-N-[2-amino-1-(3,4-difluorophenyl)ethyl]-8-[(2-chloro-6-fluorobenzyl)oxy]-2-methylimidazo[1,2-a]pyridine-3-carboxamide] as the compound, how does the MEC read?
A: Its MEC is 1.00 µM.

Q: With Cc1nc2c(OCc3c(F)cccc3F)cccn2c1C(=O)NCC(C)(C)CN [Example 103, N-(3-amino-2,2-dimethylpropyl)-8-[(2,6-difluorobenzyl)oxy]-2-methylimidazo[1,2-a]-pyridine-3-carboxamide] as the compound, how does the MEC read?
A: The MEC was 3.00 µM.

Q: With Cc1nc2c(OCc3c(F)cccc3F)cc(Cl)cn2c1C(=O)NCCC(C)(C)N [Example 104, N-(3-Amino-3-methylbutyl)-6-chloro-8-[(2,6-difluorobenzyl)oxy]-2-methylimidazo[1,2-a]-pyridine-3-carboxamide] as the compound, how does the MEC read?
A: The MEC was 0.30 µM.

Q: How did the MEC turn out when Cc1cc(OCc2c(F)cccc2F)c2nc(C)c(C(=O)NCCC(C)(C)N)n2c1 [Example 114, N-(3-amino-3-methylbutyl)-8-[(2,6-difluorobenzyl)oxy]-2,6-dimethylimidazo[1,2-a]-pyridine-3-carboxamide] was run?
A: Its MEC is 0.30 µM.

Q: How did the MEC turn out when Cc1cc(OCc2c(F)cccc2F)c2nc(C)c(C(=O)NC[C@@H]3CCCN3)n2c1 [Example 115, 8-[(2,6-difluorobenzyl)oxy]-2,6-dimethyl-N-[(2S)-pyrrolidin-2-ylmethyl]imidazo[1,2-a]-pyridine-3-carboxamide] was run?
A: Its MEC is 1.00 µM.

Q: Which MEC does the source give for Cc1cc(OCc2c(F)cccc2F)c2nc(C)c(C(=O)NC[C@H]3CCCN3)n2c1 [Example 116, 8-[(2,6-difluorobenzyl)oxy]-2,6-dimethyl-N-[(2R)-pyrrolidin-2-ylmethyl]imidazo[1,2-a]-pyridine-3-carboxamide] here?
A: Its MEC is 3.00 µM.

Q: How did the MEC turn out when Cc1nc2c(OCc3c(F)cccc3F)cccn2c1C(=O)NCCC(C)(C)N [Example 117, N-(3-amino-3-methylbutyl)-8-[(2,6-difluorobenzyl)oxy]-2-methylimidazo[1,2-a]-pyridine-3-carboxamide] was run?
A: The MEC was 1.00 µM.
